Measurements from patent publication US5986131A, “RXR selective ligands” (Hoffmann-La Roche Inc., priority 1997, dated 1999).

Experiments:
[1] = tested on: retinoic acid X receptors ("RXR"); conditions: cited from earlier work
[2] = tested on: nuclear retinoic acid receptors ("RAR"); conditions: cited from earlier work
Rhino mouse utricles = assay: Rhino mouse utricle reduction activity; format: in vivo, Rhino mice; conditions: topical; for Utricle Size: 3 weeks; for Utricle size % Change from Control: ns = not statistically significant, others p<0.05
Protocol: Compounds were dissolved in 100% acetone and stored at 4° C. for the duration of the experiment under nitrogen. […] One day after the last dose, the mice were sacrificed by CO2 inhalation. […] The epidermis was then separated from the dermis.
The samples were kept in each of the above solutions for 2 hours. The skin samples were removed from the xylene and mounted on glass microscope slides. Image analysis, using the Ultimage image analysis software, was used to determine the mean diameter and area of utricles. Approximately 5 fields per sample were examined, for an average of 150 utricles per mouse measured.

human sebaceous cells = assay: Antiproliferative activity on human sebocytes in vitro; format: cell-based; conditions: Homo sapiens; for IC50: 240 h, first passage cells, 10 days of exposure, read-out: Inhibition of human sebaceous cell proliferation in vitro IC50
Protocol: Sebaceous cells were isolated from adult human sebaceous glands by a combination of enzymatic and mechanical methods (Doran et al., 1991). The cells were cultured in Iscove's medium containing 10% fetal calf serum and 4 μg/ml dexamethasone on a layer of growth-arrested 3T3 mouse fibroblasts. Cells were plated in medium without the test compound and then given test compound in fresh medium 24-48 hours after the initial plating. The cultures were given fresh medium, containing the test compound, every 48 hours. On the day of harvesting, the cultures were rinsed with 0.03% EDTA in PBS, to remove only the 3T3 fibroblasts. followed by incubation in 0.05% trypsin/0.03% EDTA. The cells were suspended, mixed vigorously to prepare a single cell suspension and counted in a hemocytometer.
Stock solutions of compounds were made up as 10^-2 M solutions in 100% DMSO and stored at -20° C. in the dark. Compounds in solution were brought to room temperature and used by diluting directly into complete medium to the appropriate concentration.
The compounds of Example 12, Example 2, and Example 4 were tested for their effects on inhibiting the proliferation of first passage human sebaceous cells in vitro after 10 days of exposure to drug.

[3] = tested on: Hamster Ear Sebaceous Gland; assay: Effect on size of sebaceous glands of Golden Syrian hamsters; format: in vivo; set-up: Sebaceous Gland Size: unit not given here; conditions: 4 weeks topical dosing
Protocol: Charles River Golden Syrian male hamsters were given the desired dose in acetone. The compounds were stored at 4° C. protected from light. Fresh solutions were made up weekly.
Hamsters were dosed daily for five days, rested for two days, and dosed again for five days until 20 doses were given. The volume of solution was 50 microliters per ear.
Hamsters were sacrificed by CO2 inhalation, and the ears removed for histological evaluation. One ear was removed and the ventral surface separated from the rest of the ear. A 2 mm punch was removed 5 mm from the tip of the ear and stained in 0.1 % Sudan Black B dissolved in 100% propylene glycol overnight. After destaining, the size of sebaceous glands was quantified with a Donsanto Image Analysis System.
Data are given as the average area of 80-120 sebaceous glands per dose, as percent of the control (solvent-treated) sections.

RXRα = target: T1, RXRα (Homo sapiens, UniProt P19793); assay: RXRα activation (transactivation); format: cell-based; conditions: Table 1; read-out: Activation ED50, RXRα
T1 sequence (P19793 1-462): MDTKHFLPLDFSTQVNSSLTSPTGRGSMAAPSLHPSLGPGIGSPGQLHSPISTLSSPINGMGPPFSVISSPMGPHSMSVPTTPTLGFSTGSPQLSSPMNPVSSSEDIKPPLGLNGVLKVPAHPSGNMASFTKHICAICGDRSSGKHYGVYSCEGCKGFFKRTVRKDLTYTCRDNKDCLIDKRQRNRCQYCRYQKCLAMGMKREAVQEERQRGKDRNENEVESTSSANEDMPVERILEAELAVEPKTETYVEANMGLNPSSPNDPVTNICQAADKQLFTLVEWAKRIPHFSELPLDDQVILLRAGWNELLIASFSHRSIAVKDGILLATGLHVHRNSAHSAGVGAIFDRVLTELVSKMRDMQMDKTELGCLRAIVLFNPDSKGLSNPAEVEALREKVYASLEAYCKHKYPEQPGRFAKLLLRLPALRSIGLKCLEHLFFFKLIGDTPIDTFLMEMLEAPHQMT
From the text: Methods essentially as described in those publications were used to determine the binding and transactivation properties of retinoids reported in the Examples herein.

HL-60 cells = assay: HL-60 differentiation (NBT reduction); format: cell-based, human; conditions: in combination with RARα retinoid
Protocol: Under the influence of retinoids, HL-60 cells (a human myeloid leukemia cell line) differentiate into granulocytes. This differentiation of HL-60 cells into granulocytes is mediated by RARα, and so provides the basis for the use of retinoids to treat leukemia.
Retinoid-induced differentiation of HL-60 cells was assayed by measuring their oxidative burst potential via the reduction of NBT (Nitroblueterstazolium) [Pick et al., J. Reticuloendothelial Soc., 30:581-593 (1981)].
HL-60 cells were maintained in RPMI 1640 medium supplemented with 10% FCS, 2mM L-glutamine, ImM sodium pyruvate, 1% non-essential amino acids, 50 U/ml penicillin and 50 μg/ml streptomycin (=RPMI/FCS).
30,000 cells/[…] of RPMI/FCS were seeded into flat-bottomed microtiter wells. 10 μl of retinoids diluted in complete medium were added at the same time to yield final concentrations betweeen 10^-11 and 10^-6 M (stock solutions of 10^-2 M in ethanol were kep at -20° C. and protected from light). After 3 days, the medium was removed with a multichannel pipette and replaced with 100 μl of NBT solution (1 mg/ml in PBS with 200 nM phorbol myristate acetate (PMA). Following an additional hour incubation at 37° C. the NBT solution was removed and 100 μl of 10% SDS in 0.01 N HCl was added. The amount of the reduced NBT was quantified photometrically at 540 nm using an automated plate reader. The mean of 3 wells was calculated. S.E.M. were between 5 and 10%.

mouse B cell = assay: Inhibition of LPS-induced mouse B cell proliferation (3H-thymidine incorporation); format: cell-based
Protocol: Single cell suspensions of mouse spleen were set up in culture in flatbottomed 96 well Microtiter trays, 0.2 ml/well of a 2×10^5 /ml cell suspension in IMDM supplemented with 10% foetal calf serum, HEPES, antibiotics and 50 μM 2-mercaptoethanol. The specific B cell mitogen E. coli lipopolysaccharide (DIFCO) (LPS) was added at 50μg/ml. Cultures were incubated at 37° C. in a humidified atmosphere and 5% CO2.
The retinoids to be tested were first titrated in triplicate from 10 nM to 10 μM and left throughout the whole culture period. […] Cyclosporin A (Sandoz AG) was used as a reference compound (from 1 nM to 1 μM).
The cultures were then harvested on glass fiber filters and the radioactivity imcorporated into DNA measured in a β-liquid scintillation counter (Betaplate, Wallac Oy, Turku, Finland).
The results are expressed as % of the response of untreated cultures. […] Retinoids were added to the cultures at the beginning of the culture period.

Row | SMILES | binding to RXR (in words) [1] | binding to RAR (in words) [2] | Utricle Size (Rhino mouse utricles; 0.1 μg/day) [μm^2 / utricle] | Utricle size % Change from Control (Rhino mouse utricles; 0.1 μg/day) [%] | Utricle Size (Rhino mouse utricles; 1 μg/day) [μm^2 / utricle] | Utricle size % Change from Control (Rhino mouse utricles; 1 μg/day) [%] | Utricle Size (Rhino mouse utricles; 10 μg/day) [μm^2 / utricle] | Utricle size % Change from Control (Rhino mouse utricles; 10 μg/day) [%] | Utricle Size (Rhino mouse utricles; 100 μg/day) [μm^2 / utricle] | Utricle size % Change from Control (Rhino mouse utricles; 100 μg/day) [%] | IC50 (human sebaceous cells) [nM] | other results
1 | CC1=C(/C=C/C(C)=C/C=C/C(C)=C\C(=O)O)C(C)(C)CCC1 [13-cis-retinoic acid, reference compound] | do not | bind to RARα | 9187 ± 794 | -6 | 6400 ± 424 | -34 | 3793 ± 368 | -61 | 3132 ± 305 | -68 | 100 | Sebaceous Gland Size ([3]; 1 μg/day): 14029 ± 2977; Sebaceous gland size % Change from Control ([3]; 1 μg/day, ns = not statistically significant): -15%; Sebaceous Gland Size ([3]; 10 μg/day): 12965 ± 2029; Sebaceous gland size % Change from Control ([3]; 10 μg/day, ns = not statistically significant): -21%; Sebaceous Gland Size ([3]; 100 μg/day): 10459 ± 1302; Sebaceous gland size % Change from Control ([3]; 100 μg/day): -37%
2 | CC1(C)CCC(C)(C)c2cc(C(=O)Nc3ccc(C(=O)O)cc3)ccc21 [Compound A, reference compound] |  |  |  |  |  |  |  |  |  |  |  | EC50 (RXRα): > 10000 nM; potentiation of HL-60 differentiation (in words) (HL-60 cells): somewhat more pronounced
3 | CC1=C(/C=C/C(C)=C\C=C\C(C)=C\C(=O)O)C(C)(C)CCC1 [9-cis-retinoic acid, reference compound] | binds to a group of receptors known as the retinoic acid X receptors | also acts as a ligand for the RAR group of receptors | 8650 ± 427 | -11 | 6926 ± 497 | -29 | 3540 ± 354 | -64 | 2644 ± 312 | -73 | 100 | 
4 | CC1=C(/C=C/C(C)=C/C=C/C(C)=C/C(=O)O)C(C)(C)CCC1 [All-trans retinoic acid, all-trans retinoic acid, reference compound] | do not | bind to RARα |  |  |  |  |  |  |  |  |  | inhibition at 0.01 µM (mouse B cell; Mus musculus, B-cell, 96 h, day 4, 10 nM, read-out: inhibition of B cell response): ~30%; IC50 (mouse B cell; alone, FIG. 4, day 3): 1 nM; effect on B cell response (mouse B cell; day 4, 1 nM): not inhibitory any longer and actually induces a minor enhancement of the response
5 | CC1=C(/C=C/C(C)=C(Br)\C=C\C(C)=C\C(=O)O)C(C)(C)CCC1 [Example 2, (All-E)-6-Bromo-3,7-dimethyl-9-(2,6,6-trimethyl-1-cyclohexen-1-yl)-2,4,6,8-nonatetraenoic acid] |  |  | 9535 ± 890 | -2 | 9616 ± 1134 | -1 | 9049 ± 891 | -7 | 5437 ± 615 | -44 |  | inhibition at 1 µM (human sebaceous cells; 1000 nM, first experiment, read-out: inhibition of sebaceous cell growth): 70%
6 | CC1=C(/C=C/C(C)=C(Cl)\C=C\C(C)=C\C(=O)O)C(C)(C)CCC1 [Example 12, (All-E-)-6-chloro-3,7-dimethyl-9-(2,6,6-trimethyl-1-cyclohexen-1-yl)-2,4,6,8-nonatetraenoic acid] |  |  | 9104 ± 829 | -7 | 9156 ± 938 | -6 | 7634 ± 485 | -22 | 3596 ± 300 | -63 | 100 | 
